Test results taken from ChEMBL document CHEMBL1133282, “Synthesis and preliminary biological evaluation of 4,6-disubstituted 3-cyanopyridin-2(1H)-ones, a new class of calcium entry blockers” (Bioorg Med Chem Lett, 2000).

Key:
Type in all cases: functional
[1] = species on record: Rattus norvegicus; assay: Tested in vitro on K+ -depolarized rat aorta strips to evaluate its ability to relax the initial contraction induced by K
[2] = species on record: Rattus norvegicus; assay: Vasorelaxing activity expressed as maximum smooth muscle relaxation at 1*10e-4 M
[3] = species on record: Rattus norvegicus; assay: Vasorelaxing activity expressed as maximum smooth muscle relaxation at 1*10e-5 M

Compound | IC50 [1] | Max relaxation [2] | Max relaxation [3]
COc1ccc([C@@H]2Sc3ccccc3N(CCN(C)C)C(=O)[C@@H]2OC(C)=O)cc1 [DILTIAZEM] | 48 nM | 97.86% | –
N#Cc1c(-c2cccc([N+](=O)[O-])c2)cc(-c2ccccc2O)nc1O | 500 nM | 64% | –
N#Cc1c(-c2ccccc2Cl)cc(-c2ccccc2O)nc1O | 30 nM | 79.78% | –
Cc1ccccc1-c1cc(-c2ccccc2O)nc(O)c1C#N | 1000 nM | 89.17% | –
N#Cc1c(-c2ccccc2Br)cc(-c2ccccc2O)nc1O | 17000 nM | 35.29% | –
COc1ccc(-c2cc(-c3ccccc3O)nc(O)c2C#N)c(OC)c1 | 380 nM | 40% | –
COc1ccccc1-c1cc(-c2ccccc2O)nc(O)c1C#N | 12 nM | 99.54% | –
COc1ccc(OC)c(-c2cc(-c3ccccc3O)nc(O)c2C#N)c1 | 1.1 nM | – | 95.51%
N#Cc1c(-c2ccccc2)cc(-c2ccccc2O)[nH]c1=O | 0.95 nM | 23.86% | –
